According to patent US20240217970A1, “PHTHALIMIDO CEREBLON COMPLEX BINDERS AND TRANSCRIPTION FACTOR DEGRADERS AND METHODS OF USE” (DANA-FARBER CANCER INSTITUTE, INC., priority 2021, published 2024):

Tests used:
[1] = biological target: T1, IKZF2 (Helios) (Homo sapiens, UniProt Q96SW2+Q9UKS7); test: HiBiT-IKZF2 degradation assay in MOLT4 cells; type: cell-based; settings: for inhibition at 10 µM: MOLT-4, 10 μM; for DC50: concentration at which 50% of HiBiT-Helios degradation was achieved, read-out: Cellular Degradation - IKZF2 DC50
T1 construct: endogenous in cells; host or cells: MOLT4 (CRISPR/Cas knock-in of HiBiT at the endogenous IKZF2 locus)
Method: The HiBiT protein tagging system was applied to MOLT4 cells via a CRISPR/Cas-mediated insertion of the HiBiT peptide tag (Promega™) to the N-terminus of the IKZF2 gene locus (Neon™ Transfection System). The resulting HiBiT-Helios stable cell line was treated with inventive compounds 1-10 in triplicates following a 13-point concentration scheme ranging from 10 μM to 0.00026 μM. At the indicated timepoints, the Nano-Glo® HiBiT Lytic Detection system (Promega™) was utilized for detecting bioluminescence of the HiBiT tag in treated cells: the abundance of the tag is proportionate to the level of luminescence. Following normalization to DMSO, dose-response curves were plotted (GraphPad Prism) to determine the concentration points at which 50% of HiBiT-Helios degradation was achieved by each compound. The extent of degradation (range of luminescence) from the highest to lowest concentration points was calculated to determine Dmax.

[2] = biological target: T2, CRBN (NanoLuc-CRBN) (Homo sapiens, UniProt Q96SW2); test: Cellular CRBN NanoBRET engagement assay; type: cell-based; settings: HEK293T cells stably expressing NanoLuc-CRBN; tracer 250 nM; two hours incubation
T2 construct: expressed in transfected cells; host or cells: HEK293T (lentiviral transduction, puromycin selection)
Method: HEK293T cells were transduced with lentivirus and put under puromycin selection (5 μg/mL) for two weeks to produce a cell line stably expressing CRBN with N-terminally fused NanoLuc luciferase (NanoLuc®-CRBN). After antibiotic selection, cells were cultured in DMEM (Gibco, Life Technologies™) supplemented with 10% FBS and 1 μg/mL puromycin to maintain stable NanoLuc®-CRBN expression.
To run the assay, cells were cultured to confluency in 10 cm^2 tissue culture treated plates (Corning®, 430165), washed with PBS and trypsinized at room temperature to detach from the cell culture plate. After 3-4 minutes, the trypsin was quenched with 5× volume DMEM media (Gibco, Life Technologies™) with 10% FBS and cells are collected by centrifugation (1000 rpm, 5 min). The supernatant was removed by vacuum aspiration and the pellet was then resuspended in Opti-MEM™ without phenol red. The density of this cell suspension was determined by diluting the cells 1:1 with trypan blue, then counting using a Countess™ II (Thermo Fischer Scientific) and then diluted to the required volume at 2×10^5 viable cells/mL in Opti-MEM™ I (Gibco, Life Technologies™). CRBN engagement tracer (stock at 10 μM in 31.25% PEG-400, 12.5 mM HEPES, pH 7.5, filtered using a 0.22 μm nitrocellulose membrane; final concentration in cell suspension for assay at 250 nM) was added to the suspension. Cells were then plated in a white/opaque cell culture treated 384-well plate (Corning®, 3570) at volume of 50 μL/well. After plating, the assay plate was centrifuged (500×g, 5 min) and covered in aluminum foil. Compounds for testing were added to the plate using D300e Digital Dispenser (HP) in duplicate 12-pt titrations from a 10 mM stock in DMSO, with DMSO normalized to 1% total volume. The plate was then placed in an incubator at 37° C., 5% CO2 for two hours. After incubation, the plate was removed and set on the bench to come to room temperature (˜10-15 min). The NanoLuc® substrate (500× solution)* and extracellular inhibitor (1500× solution)* were diluted in Opti-MEM™ I (Gibco, Life Technologies™) to prepare a 3× solution. This was then added to each well (25 μL/well). The plate was read on a Pherastar® FSX microplate reader with simultaneous dual emission capabilities to read 384-well plates at 450 and 520 nm. The NanoBRET™ ratio was calculated by dividing the signal at 520 nm by the signal at 450 nm for each sample. Duplicate points were averaged and plotted against [compound, M] to generate an ECso curve.

T2 sequence (Q96SW2 whole entry, species assumed): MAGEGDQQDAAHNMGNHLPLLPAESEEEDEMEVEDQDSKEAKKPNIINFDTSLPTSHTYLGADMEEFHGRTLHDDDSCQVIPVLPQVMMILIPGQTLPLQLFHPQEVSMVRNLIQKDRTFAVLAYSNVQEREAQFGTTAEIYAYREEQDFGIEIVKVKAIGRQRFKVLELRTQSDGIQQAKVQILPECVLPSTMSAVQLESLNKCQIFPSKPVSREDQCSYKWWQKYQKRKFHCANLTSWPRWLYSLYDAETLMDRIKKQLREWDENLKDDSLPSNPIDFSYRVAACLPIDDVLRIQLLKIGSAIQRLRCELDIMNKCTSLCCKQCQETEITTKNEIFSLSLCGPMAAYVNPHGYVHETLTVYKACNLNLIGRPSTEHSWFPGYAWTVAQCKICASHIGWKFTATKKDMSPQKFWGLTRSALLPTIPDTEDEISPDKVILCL
T1 sequence (Q9UKS7 whole entry): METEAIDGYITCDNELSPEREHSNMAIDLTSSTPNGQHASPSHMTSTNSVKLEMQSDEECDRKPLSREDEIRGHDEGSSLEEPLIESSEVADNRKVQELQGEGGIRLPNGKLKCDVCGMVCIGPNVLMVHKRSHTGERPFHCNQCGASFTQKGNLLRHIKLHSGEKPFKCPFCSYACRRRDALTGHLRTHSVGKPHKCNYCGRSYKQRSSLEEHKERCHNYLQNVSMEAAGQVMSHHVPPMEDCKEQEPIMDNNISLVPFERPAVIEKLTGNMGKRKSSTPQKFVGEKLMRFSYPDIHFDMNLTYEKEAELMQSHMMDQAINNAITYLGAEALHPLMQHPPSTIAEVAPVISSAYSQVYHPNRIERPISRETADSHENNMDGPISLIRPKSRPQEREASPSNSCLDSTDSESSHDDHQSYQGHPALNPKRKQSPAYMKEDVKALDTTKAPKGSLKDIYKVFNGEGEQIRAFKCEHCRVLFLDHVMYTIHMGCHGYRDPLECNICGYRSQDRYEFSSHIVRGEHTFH
T1 sequence (Q96SW2 whole entry): as the sequence (Q96SW2 whole entry, species assumed) above
T1 sequence (Q16531 whole entry partner): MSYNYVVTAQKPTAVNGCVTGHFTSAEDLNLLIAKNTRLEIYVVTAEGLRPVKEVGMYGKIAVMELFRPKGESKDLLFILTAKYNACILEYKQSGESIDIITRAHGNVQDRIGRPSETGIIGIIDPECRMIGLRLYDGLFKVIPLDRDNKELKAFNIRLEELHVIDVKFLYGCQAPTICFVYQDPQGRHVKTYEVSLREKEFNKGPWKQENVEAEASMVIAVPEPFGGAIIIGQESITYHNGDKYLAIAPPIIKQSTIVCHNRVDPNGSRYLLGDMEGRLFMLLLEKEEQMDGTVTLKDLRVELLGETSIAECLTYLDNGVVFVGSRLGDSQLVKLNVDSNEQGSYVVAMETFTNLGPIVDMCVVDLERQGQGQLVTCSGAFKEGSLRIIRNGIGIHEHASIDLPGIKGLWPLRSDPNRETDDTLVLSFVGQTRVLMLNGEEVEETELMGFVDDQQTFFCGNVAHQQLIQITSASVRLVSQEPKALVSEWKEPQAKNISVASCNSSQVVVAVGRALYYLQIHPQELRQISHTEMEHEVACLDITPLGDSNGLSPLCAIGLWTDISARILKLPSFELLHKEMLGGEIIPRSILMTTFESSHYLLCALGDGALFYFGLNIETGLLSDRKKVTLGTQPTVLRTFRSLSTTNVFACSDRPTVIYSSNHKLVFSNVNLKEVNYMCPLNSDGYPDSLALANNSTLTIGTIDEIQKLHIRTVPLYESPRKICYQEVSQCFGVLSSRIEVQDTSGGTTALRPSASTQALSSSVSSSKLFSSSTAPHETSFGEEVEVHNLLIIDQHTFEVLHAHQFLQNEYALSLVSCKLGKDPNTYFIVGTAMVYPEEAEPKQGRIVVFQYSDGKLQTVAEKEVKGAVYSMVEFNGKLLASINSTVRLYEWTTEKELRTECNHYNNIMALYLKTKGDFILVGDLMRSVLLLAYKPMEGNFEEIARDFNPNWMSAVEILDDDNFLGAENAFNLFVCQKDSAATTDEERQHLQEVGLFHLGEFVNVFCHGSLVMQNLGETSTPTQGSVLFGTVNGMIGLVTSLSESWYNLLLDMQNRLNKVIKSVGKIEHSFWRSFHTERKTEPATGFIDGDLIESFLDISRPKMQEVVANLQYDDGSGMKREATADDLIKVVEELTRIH

| SMILES | inhibition at 10 µM [1] [%] | DC50 [1] [nM] | IC50 [2] [nM] |
| --- | --- | --- | --- |
| O=C1CCC(N2C(=O)c3ccc(C4(O)CCN(CC5CCOCC5)CC4)cc3C2=O)C(=O)N1 (stereo not shown) [Compound 7] | 55 | 55 | 56 |
| O=C1CCC(N2C(=O)c3ccc(C4(O)CCN(Cc5cccc(Oc6ccc(F)cc6)c5)CC4)cc3C2=O)C(=O)N1 (stereo not shown) [Compound 6] | 77 | 7.3 | < 2.6 |
| COc1ccc(Oc2cccc(CN3CCC(O)(c4ccc5c(c4)C(=O)N(C4CCC(=O)NC4=O)C5=O)CC3)c2)cc1 (stereo not shown) [Compound 2] | 80 | 5.1 | 41 |
| O=C1CCC(N2C(=O)c3ccc(C4(O)CCN(Cc5ccc(C(F)(F)F)cc5)CC4)cc3C2=O)C(=O)N1 (stereo not shown) [Compound 16] | 69 | 56 |  |
| O=C1CCC(N2C(=O)c3ccc(C4(O)CCN(Cc5ccccc5C(F)(F)F)CC4)cc3C2=O)C(=O)N1 (stereo not shown) [Compound 14] | 57 | 20 | 62 |
| O=C1CCC(N2C(=O)c3ccc(C4=CCN(Cc5ccccc5)CC4)cc3C2=O)C(=O)N1 (stereo not shown) [Compound 19, 5-(1-Benzyl-1,2,3,6-tetrahydropyridin-4-yl)-2-(2,6-dioxopiperidin-3-yl)isoindoline-1,3-dione] | 30 |  | 1700 |
| O=C1CCC(N2C(=O)c3ccc(C4(O)CCN(Cc5cc(F)cc(F)c5)CC4)cc3C2=O)C(=O)N1 (stereo not shown) [Compound 12] | 76 | 61 |  |
| O=C1CCC(N2C(=O)c3ccc(C4(O)CCN(Cc5cccc6ccccc56)CC4)cc3C2=O)C(=O)N1 (stereo not shown) [Compound 9] | 72 | 14 | 15 |
| O=C1CCC(N2C(=O)c3ccc(C4(O)CCN(Cc5cccc(Oc6ccccc6)c5)CC4)cc3C2=O)C(=O)N1 (stereo not shown) [Compound 15] | 76 | 4.2 | 31 |
| O=C1CCC(N2C(=O)c3ccc(C4(O)CCN(Cc5cccc(Oc6ccc(Cl)cc6)c5)CC4)cc3C2=O)C(=O)N1 (stereo not shown) [Compound 3] | 79 | 8.8 | 54 |
| O=C1CCC(N2C(=O)c3ccc(C4CCN(Cc5cccc(Nc6ccccn6)n5)CC4)cc3C2=O)C(=O)N1 (stereo not shown) [Compound 11] | 45 |  | 240 |
| O=C1CCC(N2C(=O)c3ccc(C4(O)CCN(Cc5ccccc5)CC4)cc3C2=O)C(=O)N1 (stereo not shown) [Compound 18, 5-(1-benzyl-4-hydroxypiperidin-4-yl)-2-(2,6-dioxopiperidin-3-yl)isoindoline-1,3-dione] | 70 | 22 | 65 |
| O=C1CCC(N2C(=O)c3ccc(C4(O)CCN(Cc5cccc(Nc6ccccn6)n5)CC4)cc3C2=O)C(=O)N1 (stereo not shown) [Compound 8] | 71 | 24 | 76 |
| O=C1CCC(N2C(=O)c3ccc(C4(O)CCN(Cc5ccc6ccccc6c5)CC4)cc3C2=O)C(=O)N1 (stereo not shown) [Compound 17, 2-(2,6-dioxo-3-piperidyl)-5-[4-hydroxy-1-(2-naphthylmethyl)-4-piperidyl]isoindoline-1,3-dione] | 80 | 13 | 200 |
| O=C1CCC(N2C(=O)c3ccc(C4(O)CCN(Cc5ccc(F)c(Oc6ccccc6)c5)CC4)cc3C2=O)C(=O)N1 (stereo not shown) [Compound 4] | 73 | 23 | 88 |
| N#Cc1ccc(Oc2cccc(CN3CCC(O)(c4ccc5c(c4)C(=O)N(C4CCC(=O)NC4=O)C5=O)CC3)c2)cc1 (stereo not shown) [Compound 5] | 77 | 4.3 | 24 |
| COc1cccc(CN2CCC(O)(c3ccc4c(c3)C(=O)N(C3CCC(=O)NC3=O)C4=O)CC2)c1 (stereo not shown) [Compound 10] | 77 | 16 |  |
| O=C1CCC(N2C(=O)c3ccc(C4(O)CCN(Cc5ccc(OC(F)F)cc5)CC4)cc3C2=O)C(=O)N1 (stereo not shown) [Compound 13] | 74 | 19 |  |
| O=C1CCC(N2C(=O)c3ccc(C4(O)CCN(Cc5ccc6cc(-c7ccccc7)nn6c5)CC4)cc3C2=O)C(=O)N1 (stereo not shown) [Compound 1, 2-(2,6-dioxo-3-piperidyl)-5-[4-hydroxy-1-[(2-phenylpyrazolo[1,5-a]pyridin-6-yl)methyl]-4-piperidyl]isoindoline-1,3-dione] | 80 | 4.9 | 38 |
| O=C1CCC(N2C(=O)c3ccc(C4CCN(Cc5ccccc5)CC4)cc3C2=O)C(=O)N1 (stereo not shown) [Compound 20] | 45 |  |  |
